Here are results for ten compounds from PMC4298791 (Angewandte Chemie (International Ed. in English), 2014).

The ΔTm is the shift of the melting midpoint relative to a reference.

In test [1] the target is T1, CREBBP bromodomain (Homo sapiens, UniProt Q92793).
T1 construct: amplify the bromodomain region of the; made in house
The experiment in a line: AlphaScreen peptide displacement assay. The class given is binding. As for the experimental part: AlphaScreen Peptide Displacement Assay: Bromodomain AlphaScreen assays were carried out as
previously described.11,34 All experiments were carried out in duplicate and, within a table, on the same plate. […]

For the next test, the target named is T2, TIF1α (Homo sapiens, UniProt O15164).
T2 sequence (O15164 899-1004 limits assumed): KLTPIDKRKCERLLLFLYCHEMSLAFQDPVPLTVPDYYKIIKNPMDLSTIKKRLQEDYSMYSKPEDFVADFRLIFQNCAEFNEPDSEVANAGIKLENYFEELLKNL
In words: Differential scanning fluorimetry (ΔTm). The settings on record: read-out: ΔTm TIF1α. In general terms: In DSF a fluorescence change marks the thermal transition of the protein.

For another test, the target named is T3, BRD9 (Homo sapiens, UniProt Q9H8M2).
T3 sequence (Q9H8M2 136-240 limits assumed): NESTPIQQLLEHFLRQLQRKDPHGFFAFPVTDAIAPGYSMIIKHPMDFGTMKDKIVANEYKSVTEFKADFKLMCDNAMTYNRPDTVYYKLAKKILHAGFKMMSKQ
The experiment in a line: Differential scanning fluorimetry (ΔTm). The settings on record: read-out: ΔTm BRD9.

The next test concerns the target T4, BAZ2B (Homo sapiens, UniProt Q9UIF8).
T4 sequence (Q9UIF8 2060-2164 limits assumed): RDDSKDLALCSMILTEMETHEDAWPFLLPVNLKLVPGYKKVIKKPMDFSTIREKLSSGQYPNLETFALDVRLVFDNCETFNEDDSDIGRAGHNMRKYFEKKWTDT
The experiment in a line: Differential scanning fluorimetry (ΔTm). The settings on record: read-out: ΔTm BAZ2B.

For a further test, the target named is BRD4(1) (Homo sapiens, UniProt O60885). In words: Isothermal titration calorimetry (ITC). It counts as binding. The settings on record: 15 °C. The protocol:
(§1) Isothermal Titration Calorimetry (ITC): Experiments were carried out on a VP-ITC titration microcalorimeter from MicroCal™ , LLC (Northampton, MA) with a cell volume of 1.4189 ml and a 250 µl microsyringe equipped with a ThermoVac module.
(§2) The microsyringe was loaded with a solution of the protein sample (200-500 µM protein in ITC buffer) and was carefully inserted into the calorimetric cell which was filled with an amount of the ligand ([…], 20-30 µM in ITC buffer). The system […]
(§3) applied. All titrations were conducted using an initial control injection of 2 µl followed by up to 34 identical injections of 8 µl with a duration of 4 sec per injection and a spacing of 250 sec between injections. The titration experiments were designed in such a fashion, as to ensure complete saturation of the enzymes before […]
(§4) corrected for protein heats of dilution (measured on separate experiments by titrating the proteins into ITC buffer) and deconvoluted using the MicroCal™ Origin software supplied with the instrument to yield enthalpies of binding (∆H) and binding constants (KB) in the same fashion to that previously described in detail by Wiseman and coworkers.35 Thermodynamic parameters were calculated using the basic equation of thermodynamics (∆G = ∆H − T∆S = −RTlnKB, where ∆G, ∆H and ∆S are the changes in free energy, enthalpy […]
(§5) and entropy of binding respectively).
(§6) MicroCal™ Origin software package.
Background: ITC needs no label: the signal is the heat of the interaction.

The target in test [2] is T1, CREBBP bromodomain. In words: Isothermal titration calorimetry (ITC). The settings on record: 15 °C. It counts as binding. The protocol: as §1, §2, §3, §4, §5, §6
A further test addresses T5, CREBBP (Homo sapiens, UniProt Q92793).
T5 construct: amplify the bromodomain region of the; made in house
In words: Differential scanning fluorimetry (ΔTm). The class given is binding. The settings on record: DSF; protein 2 µM, compound 10 µM.

A further test has as its target LOC93349A (Homo sapiens, UniProt Q9H930). In words: Differential scanning fluorimetry (ΔTm). The settings on record: read-out: ΔTm LOC93349A.
The target of a further test is PB1(1) (Homo sapiens, UniProt Q86U86). In words: Differential scanning fluorimetry (ΔTm). The settings on record: read-out: ΔTm PB1(1).
The target in a further test is T6, BRPF3 (Homo sapiens, UniProt Q9ULD4).
T6 sequence (Q9ULD4 589-693 limits assumed): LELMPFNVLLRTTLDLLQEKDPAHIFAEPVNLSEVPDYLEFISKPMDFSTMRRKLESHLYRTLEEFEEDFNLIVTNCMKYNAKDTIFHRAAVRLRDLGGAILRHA
The experiment in a line: Differential scanning fluorimetry (ΔTm). The settings on record: read-out: ΔTm BRPF3.

The test system of test [3] is GFP chimerized to multimerized CREBBP bromodomains in U2OS cells. The experiment in a line: Fluorescence recovery after photobleaching (FRAP) assay. It counts as cell-based. The protocol: To determine the utility of (R)-2 in a cellular setting a FRAP assay was conducted.
The bleached area is indicated by a red circle. B) Half times of fluorescence recovery (t1/2) of U2OS cells expressing green fluorescent protein (GFP) chimerized to multimerized CREBBP bromodomains with or without 2.5 μM SAHA (indicated by †).
CREBBP bromodomain from chromatin. A) Time dependence of fluorescent recovery in the bleached area of U2OS cells expressing GFP chimerised to multimerised CREBBP bromodomains. Curves represent the means at each time point of 15 cells in each group (see Figure 3A for representative images of cell nuclei). B) Half times of fluorescence recovery (t½) of cells expressing GFP chimerised to multimerised CREBBP bromodomains. Bars represent the mean t½ calculated from individual recovery curves of 15 cells per group. * […]
as §5
MicroCal™ Origin software package. […]
crystallization robot (TTP Labtech, Royston UK).
50+100 nl). […] All crystallizations were carried out […]
followed by manual building in COOT42.

For another test, the target named is T7, PCAF (Homo sapiens, UniProt Q92831).
T7 sequence (Q92831 723-827 limits assumed): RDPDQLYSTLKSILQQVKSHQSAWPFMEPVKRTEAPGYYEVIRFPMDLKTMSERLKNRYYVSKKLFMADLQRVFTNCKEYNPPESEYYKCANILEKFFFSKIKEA
In words: Differential scanning fluorimetry (ΔTm). The settings on record: read-out: ΔTm PCAF.

Test [4] addresses T1, CREBBP bromodomain. Further details: method as in PMID 21804994, PMID 21851057. The settings on record: cited from earlier work.
Where [5] appears, read: peptide and protein concentration = 25 nM, range in parentheses, read-out: IC50/nM vs CREBBP.

Where two headings read alike, the source gives them in different places.

T1 sequence (Q92793 1085-1192 limits assumed): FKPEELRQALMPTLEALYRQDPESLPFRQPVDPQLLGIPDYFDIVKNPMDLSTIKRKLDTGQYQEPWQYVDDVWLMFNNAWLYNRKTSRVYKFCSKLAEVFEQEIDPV
LOC93349A, sequence (Q9H930 467-570 limits assumed): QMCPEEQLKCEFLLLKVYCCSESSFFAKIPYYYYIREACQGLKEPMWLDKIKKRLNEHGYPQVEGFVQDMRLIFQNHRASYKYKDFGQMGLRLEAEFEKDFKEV
PB1(1), sequence (Q86U86 41-151 limits assumed): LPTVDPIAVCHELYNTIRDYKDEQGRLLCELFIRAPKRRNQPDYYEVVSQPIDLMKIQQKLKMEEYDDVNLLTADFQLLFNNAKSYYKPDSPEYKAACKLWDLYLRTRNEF
T5 sequence (Q92793 1085-1192 limits assumed): as the sequence (Q92793 1085-1192 limits assumed) above
Experimental for LOC93349A: (§7) Differential Scanning Fluorimetry: Bromodomain ΔTm assay was performed as reported previously,34 with protein at a final concentration of 2 µM and compound at 10 µM.
Experimental for PB1(1): as §7

For `CC1Oc2c(cccc2C(=O)NCCCN2CCCc3ccccc32)NC1=O` (stereo not shown) [compound 4], the IC50 at CREBBP bromodomain [1] (read-out: CREBBP IC50) came to 51000 nM.
`COc1ccc2c(c1)N(CCCNC(=O)c1cccc3c1N[C@H](C)C(=O)N3)CCC2` [(R)-2]: the ΔTm at 10 µM at TIF1α was 0.7 °C; at BRD9 it was < 1.1 °C; on BAZ2B, < 0.5 °C; on CREBBP, 5.4 °C; at LOC93349A, 0.3 °C; on PB1(1) it was < 0.1 °C. For the same compound, the ΔTm at 10 µM at BRPF3 stood at 0.5 °C; on PCAF, 0 °C. For the same compound, the “−TΔS of binding to BRD4” value on BRD4(1) was -1.36 kcal/mol. Moreover, at BRD4(1) (error = error in fitting), the “ΔH of binding to BRD4” value was -6.42 ± 0.12 kcal/mol. The “TΔS of binding to CREBBP” value on CREBBP bromodomain [2] is -2.40 kcal/mol. At CREBBP bromodomain [2] (error = error in fitting), the “ΔH of binding to CREBBP” value is -6.12 ± 0.04 kcal/mol. Also, the “half time of fluorescence recovery (t1/2) compared to wild-type cells” value in test [3] (1, 5, 10 µM (R)-2 in presence of 2.5 μM SAHA) is given as “dose-dependently reduced”. In addition, in test [3] (1, 5, 10 µM, with 2.5 μM SAHA), the “displacement of CREBBP bromodomain from chromatin (FRAP)” value is reported as “can displace the CREBBP bromodomain from chromatin”.
Consider `CN1CCCC1=O` [N-methyl-2-pyrrolidone (NMP), N-methyl-2-pyrrolidone], for which, on CREBBP bromodomain [4] (AlphaScreen), the IC50 was 1900 µM. Further, at CREBBP bromodomain [4] (from AlphaScreen IC50 vs CREBBP bromodomain), the ligand efficiency is on record as 0.54.
As for `COc1ccc2c(c1)N(CCCNC(=O)c1cc(F)cc3c1N[C@H](C)C(=O)N3)CCC2` [(R)-7], on CREBBP bromodomain [1] (setting [5]), the IC50 was found to be 1530 nM.
The same measure, in the same setting: in the case of `COc1ccc2c(c1)N(CCCNC(=O)c1c(F)ccc3c1N[C@H](C)C(=O)N3)CCC2` [(R)-8] it was 2550 nM.
Still for that read-out and setting: under `C[C@@H]1Nc2c(cccc2C(=O)NCCCN2CCCc3ccccc32)NC1=O` [(S)-1] stands 6870 nM; under `COc1ccc2c(c1)CCCN2CCCNC(=O)c1cccc2c1N[C@H](C)C(=O)N2` [(R)-6], 1410 nM; under `C[C@H]1Nc2c(cccc2C(=O)NCCCN2CCOc3ccccc32)NC1=O` [(R)-5], 549 nM.
As for `CC1Oc2c(cccc2C(=O)NCCN2CCc3ccccc32)NC1=O` (stereo not shown) [compound 3], the IC50 at CREBBP bromodomain [1] (read-out: CREBBP IC50) turned out to be 77000 nM.
With `C[C@H]1Nc2c(cccc2C(=O)NCCCN2CCCc3ccccc32)NC1=O` [(R)-1], the IC50 on CREBBP bromodomain [1] (setting [5]) worked out at 758 nM; at CREBBP bromodomain [1] (read-out: CREBBP IC50) it was 760 nM.
